Test results taken from patent publication US20080234266A1, “Squaric Acid Derivatives II” (priority 2005, published 2008).

target: T1, CHK1 kinase (Homo sapiens, UniProt O14757); assay: Flashplate method (CHK1), measurement of the CHK1 kinase activity; assay type: biochemical; conditions: class symbols; 'Affinity to receptors'
T1 construct: glutathione S-transferase (GST); made in house; host or cells: Sf21 insect cells (S. frugiperda), baculovirus
T1 sequence (O14757 1-476): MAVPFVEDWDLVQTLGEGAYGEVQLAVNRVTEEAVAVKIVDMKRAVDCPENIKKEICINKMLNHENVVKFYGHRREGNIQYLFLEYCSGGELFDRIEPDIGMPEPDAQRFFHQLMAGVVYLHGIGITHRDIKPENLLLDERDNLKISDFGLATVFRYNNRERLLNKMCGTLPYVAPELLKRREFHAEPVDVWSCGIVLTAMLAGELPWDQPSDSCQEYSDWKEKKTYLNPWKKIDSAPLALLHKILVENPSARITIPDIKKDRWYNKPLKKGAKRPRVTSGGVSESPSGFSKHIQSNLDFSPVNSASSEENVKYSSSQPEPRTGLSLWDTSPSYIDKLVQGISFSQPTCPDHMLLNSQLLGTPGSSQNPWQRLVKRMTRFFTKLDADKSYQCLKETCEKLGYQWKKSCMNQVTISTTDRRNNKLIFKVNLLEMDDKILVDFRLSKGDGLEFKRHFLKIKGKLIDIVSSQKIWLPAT
Description: CHK1 kinase is expressed for the purposes of protein production in insect cells (Sf21; S. frugiperda) and subsequent purification by affinity chromatography as fusion protein with glutathione S-transferase in a baculovirus expression vector. The cultivation, infection and digestion of the cells as well as the purification of the fusion protein by column chromatography are carried out in accordance with manufacturer-oriented generic working instructions.
The kinase activity is measured using various available measurement systems. In the scintillation proximity method (Sorg et al., J. of. Biomolecular Screening, 2002, 7, 11-19), the flashplate method or the filter binding test, the radioactive phosphorylation of a protein or peptide as substrate is measured using radioactively labelled ATP (γ^32P-ATP, (γ^33P-ATP). In the case of the presence of an inhibitory compound, a reduced radioactive signal, or none at all, can be detected. Furthermore, homogeneous time-resolved fluorescence resonance energy transfer (HTR-FRET) and fluorescence polarisation (FP) technologies are useful as assay methods (Sills et al., J. of Biomolecular Screening, 2002, 191-214).
The test plates used are 384-well streptavidin-coated Flashplates Plus® from Perkin Elmer (Cat.No. SMP410A001PK). The assay plate is equilibrated with 75 μl of assay buffer per well 30 min before commencement of the experiment. The buffer is sucked out before commencement of the experiment, and the components of the kinase reaction described below are pipetted onto the plate.
CHK1 kinase, a biotinylated substrate peptide (for example CHKtide: […]), is incubated with radioactively labelled ATP in the presence and absence of test substances at 30° Celsius and a total volume of 50 μl. The reaction is terminated using 25 μl of a 0.2 M EDTA solution. After incubation for 30 min at room temperature, the supernatants are filtered off with suction, and the wells are washed three times with 100 μl of 0.9% NaCl solution each time. The measurement of the bound radioactivity is carried out by means of a scintillation measuring instrument (Topcount NXT, Perkin-Elmer).
The full value used is the inhibitor-free kinase reaction. This should be approximately in the range 3000-4000 cpm. The pharmacological zero value used is staurosporin in a final concentration of 0.1 μM. The inhibitory values (IC50) are determined using the program RS1_MTS ( ).
Kinase reaction conditions per well:
0.15 μg of CHKtide ([…])
50 μl total volume (1-fold assay buffer reaction conditions)
Solutions used: • assay buffer:
0.1 mM Titriplex VI (EGTA
10 mM magnesium acetate 0.1% mercaptoethanol
pH=7.5 (to be set using hydrochloric acid) Bovine serum albumin (final concentration 0.1%) is not added until just before use. • stop solution:
0.2 M TitriplexIII (EDTA)
• γ^33P-ATP (Perkin-Elmer) • CHK1 kinase preparations: specific activity>50 U/mg • CHKtide solution: biotinylated peptide substrate (Biotrend) stored as stock solution (concentration 0.15 mg/ml).

SMILES	IC50
O=c1c(NCc2ccc(F)c(F)c2)c(Nc2ccc3[nH]cnc3c2)c1=O [Compound A43, 3-(1H-benzimidazol-5-ylamino)-4-(3,4-di-fluorobenzylamino)cyclobut-3-ene-1,2-dione]	> 1 µM
CNS(=O)(=O)c1cccc(CNc2c(Nc3ccc4[nH]cnc4c3)c(=O)c2=O)c1 [Compound A44, 3-(1H-benzimidazol-5-ylamino)-4-[3-(methyl-aminosulfonyl)benzylamino]cyclobut-3-ene-1,2-dione]	> 1 µM
CC(=O)Nc1cccc(CNc2c(Nc3ccc4[nH]cnc4c3)c(=O)c2=O)c1 [Compound A45, 3-(1H-benzimidazol-5-ylamino)-4-(3-acetamidobenzylamino)cyclobut-3-ene-1,2-dione]	> 1 µM
CCn1c2ccccc2c2cc(Nc3c(NCc4cccc(O)c4)c(=O)c3=O)ccc21 [Compound A47, 3-(9-ethyl-9H-carbazol-3-ylamino)-4-(3-hydroxybenzylamino)cyclobut-3-ene-1,2-dione]	> 1 µM
O=c1c(NCc2cccc(O)c2)c(Nc2ccc3nccn3c2)c1=O [Compound A49, 3-(imidazo[1,2-a]pyridin-6-ylamino)-4-(3-hydroxybenzylamino)cyclobut-3-ene-1,2-dione]	< 1 µM
Cn1cnc2cc(Nc3c(NCc4cccc(O)c4)c(=O)c3=O)ccc21 [Compound A50, 3-(1-methyl-1H-benzimidazol-5-ylamino)-4-(3-hydroxybenzylamino)cyclobut-3-ene-1,2-dione]	> 1 µM
COc1cccc([C@H](C)Nc2c(Nc3ccc4c(c3)ncn4C)c(=O)c2=O)c1 [Compound A51, 3-[(S)-1-(3-methoxyphenyl)ethylamino]-4-(1-methyl-1H-benzimidazol-5-ylamino)cyclobut-3-ene-1,2-dione]	> 1 µM
Cn1cnc2ccc(Nc3c(NCc4cccc(O)c4)c(=O)c3=O)cc21 [Compound A52, 3-(3-hydroxybenzylamino)-4-(3-methyl-3H-benzimidazol-5-ylamino)cyclobut-3-ene-1,2-dione]	< 1 µM
COc1cccc([C@@H](C)Nc2c(Nc3ccc4ncn(C)c4c3)c(=O)c2=O)c1 [Compound A53, 3-[(R)-1-(3-methoxyphenyl)ethylamino]-4-(3-methyl-3H-benzimidazol-5-ylamino)cyclobut-3-ene-1,2-dione]	< 1 µM
Cc1cc2nccn2cc1Nc1c(NCc2cccc(O)c2)c(=O)c1=O [Compound A54, 3-(3-hydroxybenzylamino)-4-(7-methyl-imidazo[1,2-a]pyridin-6-ylamino)cyclobut-3-ene-1,2-dione]	> 1 µM
Cc1cc(Nc2c(NCc3cccc(O)c3)c(=O)c2=O)cn2ccnc12 [Compound A55, 3-(3-hydroxybenzylamino)-4-(8-methyl-imidazo[1,2-a]pyridin-6-ylamino)cyclobut-3-ene-1,2-dione]	> 1 µM
CCN(CC)CCn1cnc2ccc(Nc3c(N[C@H](C)c4cccc(OC)c4)c(=O)c3=O)cc21 [Compound A65, 3-[3-(2-diethylaminoethyl)-3H-benzimidazol-5-ylamino]-4-[(R)-1-(3-methoxyphenyl)ethyl-amino]cyclobut-3-ene-1,2-dione]	> 1 µM
CCN(CC)CCn1cnc2ccc(Nc3c(N[C@H](C)c4cccc(O)c4)c(=O)c3=O)cc21 [Compound A66, 3-[3-(2-diethylaminoethyl)-3H-benzimidazol-5-ylamino]-4-[(R)-1-(3-hydroxyphenyl)ethyl-amino]cyclobut-3-ene-1,2-dione]	> 1 µM
COCCn1cnc2ccc(Nc3c(N[C@H](C)c4cccc(O)c4)c(=O)c3=O)cc21 [Compound A68, 3-[3-(2-methoxyethyl)-3H-benzimidazol-5-ylamino]-4-[(R)-1-(3-hydroxyphenyl)ethyl-amino]cyclobut-3-ene-1,2-dione]	< 1 µM
COCCn1cnc2ccc(Nc3c(NCc4cccc(-c5nnn[nH]5)c4)c(=O)c3=O)cc21 [Compound A69, 3-[3-(2-methoxyethyl)-3H-benzimidazol-5-ylamino]-4-[3-(1H-tetrazol-5-yl)benzylamino]-cyclobut-3-ene-1,2-dione]	> 1 µM
COCCn1cnc2ccc(Nc3c(NCc4cccc(S(N)(=O)=O)c4)c(=O)c3=O)cc21 [Compound A70, 3-[3-(2-methoxyethyl)-3H-benzimidazol-5-ylamino]-4-(3-aminosulfonylbenzylamino)-cyclobut-3-ene-1,2-dione]	> 1 µM
CCN(CC)CCn1cnc2ccc(Nc3c(NCc4cccc(S(N)(=O)=O)c4)c(=O)c3=O)cc21 [Compound A71, 3-[3-(2-diethylaminoethyl)-3H-benzimidazol-5-ylamino]-4-(3-aminosulfonylbenzylamino)-cyclobut-3-ene-1,2-dione]	> 1 µM
COCCn1cnc2cc(Nc3c(N[C@H](C)c4cccc(OC)c4)c(=O)c3=O)ccc21 [Compound A72, 3-[1-(2-methoxyethyl)-1H-benzimidazol-5-ylamino]-4-[(R)-1-(3-methoxyphenyl)ethyl-amino]cyclobut-3-ene-1,2-dione]	> 1 µM
CCN(CC)CCn1cnc2cc(Nc3c(N[C@H](C)c4cccc(O)c4)c(=O)c3=O)ccc21 [Compound A73, 3-[1-(2-diethylaminoethyl)-1H-benzimidazol-5-ylamino]-4-[(R)-1-(3-hydroxyphenyl)ethyl-amino]cyclobut-3-ene-1,2-dione]	> 1 µM

Second part, the compound after the results:

IC50	SMILES
> 1 µM	COCCn1cnc2cc(Nc3c(N[C@H](C)c4cccc(O)c4)c(=O)c3=O)ccc21 [Compound A74, 3-[(R)-1-(3-hydroxyphenyl)ethylamino]-4-[1-(2-methoxyethyl)-1H-benzimidazol-5-yl-amino]cyclobut-3-ene-1,2-dione]
> 1 µM	CC(Nc1c(Nc2ccc3[nH]cnc3c2)c(=O)c1=O)c1ccc2[nH]ccc2c1 (stereo not drawn) [Compound A75, 3-(1H-benzimidazol-5-ylamino)-4-[1-(1H-indol-5-yl)ethylamino]cyclobut-3-ene-1,2-dione]
> 1 µM	COc1cc(CNc2c(Nc3ccc4[nH]cnc4c3)c(=O)c2=O)ccc1F [Compound A76, 3-(1H-benzimidazol-5-ylamino)-4-(4-fluoro-3-methoxybenzylamino)cyclobut-3-ene-1,2-dione]
> 1 µM	CS(=O)(=O)Nc1cccc(CNc2c(Nc3ccc4[nH]cnc4c3)c(=O)c2=O)c1 [Compound A77, 3-(1H-benzimidazol-5-ylamino)-4-(3-methyl-sulfonylaminobenzylamino)cyclobut-3-ene-1,2-dione]
> 1 µM	O=c1c(NCc2cc(F)c(F)c(O)c2F)c(Nc2ccc3[nH]cnc3c2)c1=O [Compound A78, 3-(1H-benzimidazol-5-ylamino)-4-(2,4,5-trifluoro-3-hydroxybenzylamino)cyclobut-3-ene-1,2-dione]
> 1 µM	O=c1c(NCc2ccc3[nH]ccc3c2)c(Nc2ccc3[nH]cnc3c2)c1=O [Compound A79, 3-(1H-benzimidazol-5-ylamino)-4-[(1H-indol-5-ylmethyl)amino]cyclobut-3-ene-1,2-dione]
> 1 µM	O=c1[nH]c2ccc(CNc3c(Nc4ccc5[nH]cnc5c4)c(=O)c3=O)cc2[nH]1 [Compound A80, 3-(1H-benzimidazol-5-ylamino)-4-[(2-oxo-2,3-dihydro-1H-benzimidazol-5-ylmethyl)amino]-cyclobut-3-ene-1,2-dione]
> 1 µM	CCOC(=O)c1cc2cc(Nc3c(NCc4cccc(O)c4)c(=O)c3=O)ccc2[nH]1 [Compound A81, 3-(2-ethoxycarbonyl-1H-indol-5-ylamino)-4-(3-hydroxybenzylamino)cyclobut-3-ene-1,2-dione]
